{"source": "patent US20260007133A1", "about": "“HERBICIDAL COMPOSITION COMPRISING AZINE COMPOUNDS” (BASF SE, priority 2022, published 2026)", "type_in_all_cases": "in vivo", "key": {"Abutilon theophrasti": {"tested_on": "Abutilon theophrasti", "assay": "Greenhouse pre-emergence (PRE) herbicidal test on ABUTH", "details": "Abutilon theophrasti, pre-emergence", "method_in_brief": "(§1)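 Visual 0–100 rating at 20 days after treatment; 0 = normal growth, 100 = no emergence or complete kill of shoots. Pre-emergent application to seeded pots of loamy sand (~3.0% humus), species-dependent temperature 10-25° C or 20-35° C.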"}, "Alopecurus myosuroides": {"tested_on": "Alopecurus myosuroides", "assay": "Greenhouse pre-emergence (PRE) herbicidal test on ALOMY", "method_in_brief": "as §1"}, "Ipomoea hederacea": {"tested_on": "Ipomoea hederacea", "assay": "Greenhouse pre-emergence (PRE) herbicidal test on IPOHE", "details": "PRE, IPOHE, 20 DAT", "method_in_brief": "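Damage was rated visually on a 0 to 100 scale at 20 days after treatment, where 0 meant normal growth and 100 meant no emergence or complete kill of above-ground parts. Compounds were applied in water to freshly sown loamy-sand pots.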"}, "Polygonum convolvulus": {"tested_on": "Polygonum convolvulus", "assay": "Greenhouse pre-emergence (PRE) herbicidal test on POLCO", "details": "Fallopia convolvulus, pre-emergence, use rate 1 gai/ha", "text": "(§2) The culture containers used were plastic pots containing loamy sand with approximately 3.0% of humus as substrate. The seeds of the test plants were sown separately for each species.\nFor the pre-emergence treatment, the active compounds, suspended or emulsified in water, were applied directly after sowing by means of finely distributing nozzles. The containers were irrigated gently to promote germination and growth and subsequently covered with transparent plastic hoods until the plants had rooted. This cover caused uniform germination of the test plants unless this was adversely affected by the active compounds.\n(§3) Depending on the species, the plants were kept at 10-25° C. and 20-35° C., respectively.\n(§4) The test period extended over 2 to 4 weeks. During this time, the plants were tended and their response to the individual treatments was evaluated.\n(§5) Evaluation was carried out using a scale from 0 to 100. 100 means no emergence of the plants, or complete destruction of at least the above-ground parts, and 0 means no damage or normal course of growth. A good herbicidal activity is given at values of at least 70, and very good herbicidal activity is given at values of at least 85.\n(§6) If not stated differently, the respective components A and B, and if appropriate, C were formulated as a 5% by weight strength emulsion concentrate and, with addition of the amount of solvent system, introduced into the spray liquor used for applying the active compound.\n(§7) As indicated application was either post emergent (POST) at the respective growth stage (GS) of the weed (BBCH code), or pre-emergent (PRE).\n(§8) Assessment was 20 days after treatment (DAT)."}, "Commelina benghalensis": {"tested_on": "Commelina benghalensis", "assay": "Greenhouse post-emergence (POST) herbicidal test on COMBE", "details": "480 h, use rate 16 gai/ha, 20 DAT", "method": "as §2\n(§9) For the post-emergence treatment, the test plants were grown to a plant height of from 3 to 15 cm, depending on the plant habit, and only then treated with the active compounds which had been suspended or emulsified in water. To this end, the test plants were either sown directly, and grown in the same containers, or they were first grown separately as seedlings and transplanted into the test containers a few days prior to treatment.\nas §3, §4, §5, §6, §7, §8"}, "Digitaria sanguinalis": {"tested_on": "Digitaria sanguinalis", "assay": "Greenhouse post-emergence (POST) herbicidal test on DIGSA", "details": "Digitaria sanguinalis, post-emergence; for inhibition at 2 g/ha: use rate 2 gai/ha; for inhibition at 2 g/ha / inhibition at 1 g/ha: read-out: % activity; for inhibition at 4 g/ha: use rate 4 gai/ha; for inhibition at 1 g/ha: use rate 1 gai/ha", "method_in_brief": "(§10)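 Greenhouse weeds, raised in pots of humus-containing loamy sand, receive a water-based spray of the actives once 3 to 15 cm tall. Damage is rated visually from 0 (none) to 100 (above-ground parts destroyed) 20 days after treatment.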"}, "Geranium pusillum": {"tested_on": "Geranium pusillum", "assay": "Greenhouse post-emergence (POST) herbicidal test on GERPU", "details": "Geranium pusillum, post-emergence; for inhibition at 4 g/ha: use rate 4 gai/ha", "method_in_brief": "as §10"}, "Setaria viridis": {"tested_on": "Setaria viridis", "assay": "Greenhouse post-emergence (POST) herbicidal test on SETVI", "details": "480 h, 20 DAT", "method": "as §2, §9, §3, §4, §5, §6, §7, §8"}, "SETFA": {"tested_on": "SETFA", "assay": "Greenhouse pre-emergence (PRE) herbicidal test on SETFA", "details": "Setaria faberi, use rate 1 gai/ha"}}, "note": "Read-outs that look alike come from different tables or passages of the source.", "data": [{"smiles": "COc1c(F)cc(F)c(F)c1Nc1nc(N)nc(C(C)(C)F)n1", "note": "[Compound I-1]", "values": [{"measurement": "inhibition at 2 g/ha", "setting": "Abutilon theophrasti; 480 h, PRE, ABUTH, use rate 2 gai/ha, 20 DAT, read-out: % activity", "result": 65, "unit": "%"}, {"measurement": "inhibition at 4 g/ha", "setting": "Abutilon theophrasti; 480 h, PRE, ABUTH, use rate 4 gai/ha, 20 DAT", "result": 75, "unit": "%"}, {"measurement": "inhibition at 1 g/ha", "setting": "Abutilon theophrasti; ABUTH PRE, use rate 1 gai/ha, read-out: % activity", "result": 75, "unit": "%"}, {"measurement": "% activity", "setting": "Alopecurus myosuroides; ALOMY PRE, use rate 1 gai/ha", "result": 30, "unit": "%"}, {"measurement": "inhibition at 1 g/ha", "setting": "Alopecurus myosuroides; Alopecurus myosuroides, pre-emergence, 480 h, PRE, ALOMY, use rate 1 gai/ha, 20 DAT", "result": 10, "unit": "%"}, {"measurement": "inhibition at 1 g/ha", "setting": "Alopecurus myosuroides; Alopecurus myosuroides, pre-emergence, ALOMY PRE, use rate 1 gai/ha", "result": 15, "unit": "%"}, {"measurement": "inhibition at 4 g/ha", "setting": "Alopecurus myosuroides; Alopecurus myosuroides, pre-emergence, ALOMY PRE, use rate 4 gai/ha", "result": 90, "unit": "%"}, {"measurement": "inhibition at 8 g/ha", "setting": "Ipomoea hederacea; Ipomoea hederacea, pre-emergence, 480 h, use rate 8 gai/ha", "result": 70, "unit": "%"}, {"measurement": "inhibition at 16 g/ha", "setting": "Ipomoea hederacea; Ipomoea hederacea, pre-emergence, 480 h, use rate 16 gai/ha", "result": 75, "unit": "%"}, {"measurement": "% activity", "setting": "Ipomoea hederacea; use rate 16 gai/ha", "result": 60, "unit": "%"}, {"measurement": "inhibition at 1 g/ha", "setting": "Polygonum convolvulus", "result": 50, "unit": "%"}, {"measurement": "inhibition at 16 g/ha", "setting": "Commelina benghalensis", "result": 75, "unit": "%"}, {"measurement": "inhibition at 2 g/ha", "setting": "Digitaria sanguinalis; 480 h, POST, DIGSA, 20 DAT", "result": 0, "unit": "%"}, {"measurement": "inhibition at 4 g/ha", "setting": "Digitaria sanguinalis; 480 h, POST, DIGSA, 20 DAT", "result": 30, "unit": "%"}, {"measurement": "inhibition at 1 g/ha", "setting": "Digitaria sanguinalis; DIGSA POST", "result": 5, "unit": "%"}, {"measurement": "inhibition at 4 g/ha", "setting": "Digitaria sanguinalis; DIGSA POST", "result": 25, "unit": "%"}, {"measurement": "inhibition at 1 g/ha", "setting": "Digitaria sanguinalis; POST, DIGSA", "result": 0, "unit": "%"}, {"measurement": "inhibition at 2 g/ha", "setting": "Digitaria sanguinalis; POST, DIGSA", "result": 10, "unit": "%"}, {"measurement": "inhibition at 2 g/ha", "setting": "Geranium pusillum; 480 h, POST, GERPU, use rate 2 gai/ha, 20 DAT, read-out: % activity", "result": 0, "unit": "%"}, {"measurement": "inhibition at 4 g/ha", "setting": "Geranium pusillum; 480 h, POST, GERPU, 20 DAT", "result": 0, "unit": "%"}, {"measurement": "inhibition at 8 g/ha", "setting": "Geranium pusillum; 480 h, POST, GERPU, use rate 8 gai/ha, 20 DAT, read-out: % activity", "result": 50, "unit": "%"}, {"measurement": "inhibition at 16 g/ha", "setting": "Geranium pusillum; 480 h, POST, GERPU, use rate 16 gai/ha, 20 DAT", "result": 70, "unit": "%"}, {"measurement": "inhibition at 4 g/ha", "setting": "Geranium pusillum; GERPU POST", "result": 55, "unit": "%"}, {"measurement": "inhibition at 1 g/ha", "setting": "Geranium pusillum; POST, GERPU, use rate 1 gai/ha", "result": 30, "unit": "%"}, {"measurement": "inhibition at 2 g/ha", "setting": "Setaria viridis; use rate 2 gai/ha", "result": 5, "unit": "%"}, {"measurement": "inhibition at 4 g/ha", "setting": "Setaria viridis; use rate 4 gai/ha", "result": 70, "unit": "%"}, {"measurement": "inhibition at 1 g/ha", "setting": "SETFA", "result": 60, "unit": "%"}]}]}
